Drawing on ChEMBL document CHEMBL2073910, “Molecular cloning and functional characterization of the mouse organic-anion-transporting polypeptide 1 (Oatp1) and mapping of the gene to chromosome X” (Biochem J, 2000), this text covers Activity and Km for 4 molecules.

The target of data set [1] is T1, Solute carrier organic anion transporter family member 1A1 (Mus musculus, UniProt Q9QXZ6).
T1 sequence (Q9QXZ6 whole entry): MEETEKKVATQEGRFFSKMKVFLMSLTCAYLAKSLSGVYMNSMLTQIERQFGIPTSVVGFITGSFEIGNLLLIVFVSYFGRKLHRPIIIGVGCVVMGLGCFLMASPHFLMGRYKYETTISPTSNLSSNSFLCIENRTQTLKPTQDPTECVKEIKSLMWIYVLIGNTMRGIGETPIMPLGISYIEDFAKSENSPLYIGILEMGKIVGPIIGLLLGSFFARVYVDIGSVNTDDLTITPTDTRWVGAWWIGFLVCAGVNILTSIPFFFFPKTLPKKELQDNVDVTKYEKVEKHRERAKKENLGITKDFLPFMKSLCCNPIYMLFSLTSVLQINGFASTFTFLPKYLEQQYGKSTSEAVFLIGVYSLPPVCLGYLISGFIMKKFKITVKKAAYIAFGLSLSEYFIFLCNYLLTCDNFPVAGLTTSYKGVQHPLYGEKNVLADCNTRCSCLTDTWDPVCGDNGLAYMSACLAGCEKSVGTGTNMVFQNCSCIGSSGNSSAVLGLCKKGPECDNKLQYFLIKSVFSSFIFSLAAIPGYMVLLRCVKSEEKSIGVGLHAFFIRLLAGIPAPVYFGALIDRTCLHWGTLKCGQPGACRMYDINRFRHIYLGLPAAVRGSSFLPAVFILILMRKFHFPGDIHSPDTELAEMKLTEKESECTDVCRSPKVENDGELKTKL
The data set can be described thus: (§1) TP_TRANSPORTER: uptake in Xenopus laevis oocytes. The format is functional, cell-based. Particulars: oocyte.

Substrate in data set [2]: C[C@]12CC[C@@H]3c4ccc(OS(=O)(=O)O)cc4CC[C@H]3[C@@H]1CCC2=O
Described as §1. The format is functional, cell-based, Oocyte.

Take `C[C@@H]1O[C@@H](O[C@H]2C[C@@H](O)[C@]3(CO)[C@H]4[C@H](O)C[C@]5(C)[C@@H](C6=CC(=O)OC6)CC[C@]5(O)[C@@H]4CC[C@]3(O)C2)[C@H](O)[C@H](O)[C@H]1O` [OUABAIN]: the Activity result in data set [1] is “substrate [+]”.

On to `O=C1OC(c2ccc(O)c(S(=O)(=O)[O-])c2)(c2ccc(O)c(S(=O)(=O)[O-])c2)c2c(Br)c(Br)c(Br)c(Br)c21.[Na+].[Na+]` [SULFOBROMOPHTHALEIN SODIUM], for which the Activity result in data set [1] was “substrate [+]”.

On to GADOXETATE, for which, in data set [1], the Activity entry was “substrate [+]”.

B1: Solute carrier organic anion transporter family member 1A1 (Mus musculus) (protein)
chain: T1 sequence (Q9QXZ6 whole entry)
Consider B1, for which the Km in data set [2] was determined as 5 µM.
